Assay results taken from US20180185332A1, “Leukotriene Receptor Antagonists and Their Derivatives for Use as Antibacterial Agents” (University of East London, priority 2013, published 2018).
Converted amounts (≈) assume the structure as drawn.

Tests used:
[1] = test system: MRSA; assay: Minimum inhibitory concentration (MIC) in broth; assay type: cell-based, methicillin resistant Staphylococcus aureus; settings: Staphylococcus aureus, 10^5 cfu/mL, overnight at 37° C., no visible growth
Protocol: (§1) Zafirlukast (Sigma Aldrich, UK) was resuspended in Dimethyl Sulfoxide to a concentration of 16 mM. A minimum inhibitory concentration (MIC) was conducted using various bacterial broth solutions containing between the 0 and 4 mM zafirlukast. 10^5 cfu/mL of test organism was added to each tube before incubation overnight at 37° C. The MIC was taken to be the concentration at which no visible growth was observed. In addition, zone inhibition studies were carried out using standard techniques.
(§2) The bacterial species tested included Staphylococcus aureus, methicillin resistant Staphylococcus aureus, Enterococcus faecalis, Bacillus subtilis, Streptococcus pneumoniae, and Clostridium difficile.
(§3) MIC is well known to the skilled person and is defined as the lowest concentration of agent which prevents visible growth of the bacterial strain under investigation.

[2] = test system: Bacillus subtilis; assay: Minimum inhibitory concentration (MIC) in broth; assay type: cell-based; settings: 10^5 cfu/mL, overnight at 37° C., no visible growth
Protocol: as §1, §2, §3

[3] = test system: Staphylococcus aureus; assay: Minimum inhibitory concentration (MIC) in broth; assay type: cell-based; settings: 10^5 cfu/mL, overnight at 37° C., no visible growth
Protocol: as §1, §2, §3

[4] = test system: Mycobacterium smegmatis; settings: Pinault et al 2013; cited from earlier work
[5] = target: Lsr2 (Mycobacterium tuberculosis, UniProt P9WIP7); settings: Pinault et al 2013; cited from earlier work
[6] = in vivo, po; cited from earlier work
[7] = test system: S. aureus; assay: Bactericidal activity, viable counts (percentage survival); assay type: cell-based; settings: 3 hrs at 37° C., FIG. 2
Protocol: (§4) 10^5 cfu/mL of bacterial culture was incubated in the presence of various concentrations of zafirlukast for a period of 3 hrs at 37° C. At the end of this incubation, viable counts were taken and results recoded as percentage survival (as compared to the drug free control).

[8] = test system: B. subtilis; assay: as above; assay type: cell-based; settings: 3 hrs at 37° C., FIG. 2
Protocol: as §4

[9] = test system: E. coli; settings: Pinault et al 2013; cited from earlier work
[10] = test system: Mycobacterium tuberculosis; settings: Pinault et al 2013; cited from earlier work

Compound | MIC [1] | MIC [2] | MIC [3] | bactericidal activity against M. smegmatis [4] | growth of Mycobacterium smegmatis [4] | complexation of Lsr2 with DNA [5] | plasma half-life [6] | bactericidal activity [7] | bactericidal activity [8] | effect on the growth of E. coli [9] | growth of Mycobacterium tuberculosis [10]
CO/N=C(\C(=O)N[C@@H]1C(=O)N2C(C(=O)O)=C(CSc3nc(=O)c(=O)[nH]n3C)CS[C@H]12)c1csc(N)n1 [Ceftriaxone] | 22 µM (≈ 12.2 µg/mL) | > 29 µM | 2 µM (≈ 1.11 µg/mL) | – | – | – | – | – | – | – | –
O=C(O)c1cn(C2CC2)c2cc(N3CCNCC3)c(F)cc2c1=O [Ciprofloxacin] | 40 µM (≈ 13.3 µg/mL) | > 12 µM | 3 µM (≈ 0.994 µg/mL) | – | – | – | – | – | – | – | –
COc1cc(C(=O)NS(=O)(=O)c2ccccc2C)ccc1Cc1cn(C)c2ccc(NC(=O)OC3CCCC3)cc12 [Zafirlukast, [3-[2-Methoxy-4-(toluene-2-sulfonylaminocarbonyl)benzyl]-I-methyl-IH-indol-5-yl]carbamic acid cyclopentyl ester] | 6 µM (≈ 3.45 µg/mL) | 6 µM (≈ 3.45 µg/mL) | 30 µM (≈ 17.3 µg/mL) | exhibits bactericidal activity | inhibits the growth | inhibits the complexation | approximately 10 hours | bactericidal activity | bactericidal activity | no effect | inhibits the growth
